Experimental data: patent US4406879A, “Phthalazinol preparation” (Nippon Kayaku Kabushiki Kaisha, priority 1979, dated 1983)
≈ marks a conversion by molar mass, not a printed value.

Key:
[1] = Water-solubility and wettability of Phthalazinol; format: physicochemical
[2] = Oral absorption and blood content of Phthalazinol (first pass effect); format: in vivo
alcohol dehydrogenase = assay: Metabolism of Phthalazinol with alcohol dehydrogenase in the living body; format: in vivo; settings: before it arrives at the blood circulation system

Compound: CCOC(=O)c1c(C)cc2c(CO)n[nH]c(=O)c2c1C [Phthalazinol, 6,8-Dimethyl-7-ethoxycarbonyl-4-hydroxymethyl-1-phthalazone]
- wettability with water [1]: low wettability
- solubility ([1]; water at 25° C.): ~0.2 mg/mL (≈ 724 µM)
- absorption velocity ([2]; Phthalazinol subjected to the tests at present): low absorption velocity
- Fa ([2]; in vivo, po, administered orally): ~100%
- actual Phthalazinol content of the blood relative to the theoretical value ([2]; theoretical value assumes no metabolism and complete absorption): several tenths
- metabolism (4-hydroxymethyl converted into inactive 4-carboxyl group) (alcohol dehydrogenase): readily metabolized
